Results as given in patent US20260355318A1, “MOLECULAR MACHINES FOR TREATMENT OF CANCER, FUNGAL INFECTIONS, OR BACTERIAL INFECTIONS” (priority 2022, published 2026).
Read-outs that look alike come from different tables or passages of the source.

Experiments:
C. albicans = test: MIC, visible-light-activated MMs and conventional antifungals, C. albicans; assay type: cell-based, Candida albicans (ATCC 18804); conditions: Candida albicans, read-out: MIC of MM
In short: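 C. albicans suspensions (~10^4 CFU/mL in saline, CLSI) incubated 30 min in the dark with MMs, then irradiated with stirring at 405 nm, 292 mW cm^−2 for 5 min (87.6 J cm^−2). Cells then grown in MOPS-buffered RPMI 1640 (pH 7.0) at 30 °C for 48 h; MIC is lowest concentration with no visible growth; conventional antifungals tested likewise.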

[1] = system: mitochondrial cytochrome c; test: Cytochrome c release; assay type: cell-based, Candida albicans; conditions: 2×MIC, p<0.05
Method: Cells were harvested for protoplast preparation by digestion with zymolyase 20 T (20 mg mL-1, US Biological Life Sciences, MA, USA) in 0.1 M potassium phosphate buffer (pH 6.0) containing 1 M sorbitol for 1 h at 30 °C. Mitochondrial cytochrome c was extracted and reduced with ascorbic acid (0.5 mg mL^−1) as previously described (Yun and Lee, 2016). The absorbance at 550 nm was determined on a Beckman Coulter DU 800 spectrophotometer (Fullerton, CA, USA). Cytochrome c levels were normalized to the protein content determined using the Pierce assay (Pierce™ BCA Protein Assay Kit, Thermo Fisher Scientific, MA, USA).

E. coli = test: MIC, E. coli; assay type: cell-based, Escherichia coli BW25113; conditions: Escherichia coli, read-out: MIC of MM
A. baumannii = test: Time-kill / light-dose experiments, A. baumannii; assay type: cell-based, Acinetobacter baumannii; conditions: highest concentration of MM (5 μM), 405 nm
Method: Serial dilutions of irradiated cell suspensions were prepared in PBS. A volume of 10 AL of the appropriate serial dilutions was spot-plated onto LB agar plates. Following overnight incubation at 30 or 37 ° C, depending on the strain, bacterial viability was assessed as colony forming units (CFU) per mL. Results were expressed as log (N/NO) whereby N is the CFU mL^−1 at each irradiation time point and NO is the initial CFU mL^−1 of the corresponding sample. Only dilutions that yielded 10-100 colonies were counted.

[2] = system: persister cells of E. coli; test: Persister eradication, E. coli; assay type: cell-based, Escherichia coli; conditions: 1×MIC, 405 nm
Method: Persister cells of E. coli were prepared by adding ampicillin (100 μg mL^−1) to exponential-phase cells (OD600 of ≈0.8) followed by continuous agitation for another 3 b, as previously described (Keren et al., 2004). In the case of S. aureus, almost all stationary-phase are considered to be persistent (Keren et al., 2004). S. aureus cells were grown at 37 ° C and 220 rpm in LB broth to an OD600 of 0.3. Cells were then diluted 1:1000 in 25 mL LB and grown for 16 h at 37 ° C and 220 rpm in 250 mL flasks. […] At specified time points (0, 1, 2, 3, 4 and 5, 10 and 15 min), 50-μL aliquots were removed, serially diluted and spot-plated onto LB agar plates to determine colony-forming units per mL (CFU mL^−1). Only dilutions that yielded 10-100 colonies were counted. Results were expressed as log (N/NO) whereby N is the CFU mL^−1 at each irradiation time point and NO is the initial CFU mL^−1 of the corresponding sample. […].

[3] = system: A. baumannii, E. coli, P. aeruginosa, S. aureus; test: Resistance development / cross-resistance in bacteria (serial passaging); assay type: cell-based
Method: Isolation of MM-resistant mutants of E. coli, A. baumannii, P. aeruginosa, and S. aureus was attempted by irradiating cell suspensions treated with 4×MIC of the different MMs for 5 min at 146 mW cm^−2 (43.8 J cm^−2). No visible colonies could be obtained for any of the strains tested.
For resistance development by sequential passaging (Ling et al., 2015), A. baumannii, E. coli, P. aeruginosa, and S. aureus cells in exponential phase were collected and processed as described for MIC determination. Cells were incubated at 37 ° C for 24 h after which they were inspected for growth. Cells able to grow at 0.5×MIC were collected and re-challenged with a range of MM concentrations and then irradiated. The antibiotics ciprofloxacin and gentamicin (for Gram-negatives) or ciprofloxacin and tobramycin (for S. aureus) were used as controls.

[4] = E. coli, Table 9, 405 nm light 43.8 J cm^−2
[5] = Escherichia coli, read-out: MIC of MM in antibiotic-resistant E. coli
[6] = Staphylococcus aureus, S. aureus Gentamycin^R, one line per passage 1-20, read-out: MIC of MM in antibiotic-resistant S. aureus

| SMILES | MIC (C. albicans) [µM] | mitochondrial cytochrome c levels [1] | MIC (E. coli; [4]) [µM] | light dose for complete eradication (A. baumannii) | time to reduce persister cells to limit of detection [2] [min] | MIC [3, 5] [µM] | MIC [3, 6] [µM] | MIC (E. coli; E. coli BW25113, 405 nm light 43.8 J cm^−2) [µM] |
| --- | --- | --- | --- | --- | --- | --- | --- | --- |
| C[C@@H]1Cc2ccc3ccccc3c2/C1=C1\c2ccccc2Sc2cc(NCCN)ccc21 (racemic) [MM 6, N^1-(9-(2-methyl-2,3-dihydro-1H-cyclopenta[a]naphthalen-1-ylidene)-9H-thioxanthen-3-yl)ethane-1,2-diamine] | ≤ 5 | significant reductions in mitochondrial cytochrome c levels | 2.5 | at least 40 J cm^−2 | 5 | 0.5 | 0.125 | – |
| C[C@@H]1Cc2ccc3ccccc3c2/C1=C1\c2ccccc2Sc2cc(NCCN(C)C)ccc21 [MM 1, N^1N^1-dimethyl-N^2-(9-(2-methyl-2,3-dihydro-1H-cyclopenta[a]naphthalen-1-ylidene)-9H-thioxanthen-3-yl) ethane-1,2-diamine] | ≤ 5 | significant reductions in mitochondrial cytochrome c levels | 1.25 | at least 40 J cm^−2 | 10 | 4 | 0.125 | 1.25 |
